Values joined by “and” are separate entries in the source; they are usually repeats but may differ in a detail not shown here. Equal entries are not always repeated.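 Values below derive from 48-hour exposures of cells grown in 96-well plates, with endpoints linearly interpolated between the two concentrations bracketing the appropriate inhibition level. Here, GI50 denotes the concentration required for 50% inhibition of growth. Definition used: TGI = concentration required for complete inhibition of growth.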
What was measured:
Assay in all cases: NCI anticancer screen, dose series, 48 h
IGROV1 ovarian = system: IGROV1 ovarian
ACHN renal = system: ACHN renal
UO-31 renal = system: UO-31 renal
MDA-MB-435 = system: MDA-MB-435
SK-MEL-5 melanoma = system: SK-MEL-5 melanoma
KM12 colon = system: KM12 colon
PC-3 prostate = system: PC-3 prostate
OVCAR-5 ovarian = system: OVCAR-5 ovarian
HCC-2998 colon = system: HCC-2998 colon
MCF7 breast = system: MCF7 breast
NCI-H23 lung = system: NCI-H23 lung
UACC-257 melanoma = system: UACC-257 melanoma
HT29 colon = system: HT29 colon
SK-MEL-2 melanoma = system: SK-MEL-2 melanoma
A498 renal = system: A498 renal
NCI-H522 lung = system: NCI-H522 lung
SK-MEL-28 melanoma = system: SK-MEL-28 melanoma
U251 CNS = system: U251 CNS
HCT-15 colon = system: HCT-15 colon
OVCAR-4 ovarian = system: OVCAR-4 ovarian
MOLT-4 leukemia = system: MOLT-4 leukemia
K-562 leukemia = system: K-562 leukemia
SF-295 CNS = system: SF-295 CNS
MALME-3M melanoma = system: MALME-3M melanoma
HCT-116 colon = system: HCT-116 colon
MDA-MB-231 breast = system: MDA-MB-231 breast
HL-60(TB) leukemia = system: HL-60(TB) leukemia
HS 578T breast = system: HS 578T breast
SR leukemia = system: SR leukemia

COC(=O)c1ccc(=O)c2nc3/c(=C/O)c(O)cc(=O)c3[nH]c12
GI50 (IGROV1 ovarian): 0.469 µM
TGI (IGROV1 ovarian): 3.31 µM and 17.5 µM
GI50 (ACHN renal): 0.478 µM
TGI (ACHN renal): 16.6 µM and 14.5 µM
GI50 (UO-31 renal): 0.578 µM
TGI (UO-31 renal): 8.11 µM and 18 µM
GI50 (MDA-MB-435): 0.559 µM
TGI (MDA-MB-435): 23.7 µM and 13.2 µM
GI50 (SK-MEL-5 melanoma): 1.56 µM
TGI (SK-MEL-5 melanoma): 9.1 µM and 13.5 µM
GI50 (KM12 colon): 1.6 µM
TGI (KM12 colon): 20.1 µM and 18.1 µM
GI50 (PC-3 prostate): 0.525 µM
TGI (PC-3 prostate): 17.1 µM and 16.6 µM
GI50 (OVCAR-5 ovarian): 3.38 µM
TGI (OVCAR-5 ovarian): 13 µM and 22.4 µM
GI50 (HCC-2998 colon): 2.94 µM
TGI (HCC-2998 colon): 25 µM and 18.9 µM
GI50 (MCF7 breast): 0.652 µM
TGI (MCF7 breast): 17.5 µM and 22.8 µM
GI50 (NCI-H23 lung): 0.514 µM
TGI (NCI-H23 lung): 9.33 µM and 16.7 µM
GI50 (UACC-257 melanoma): 2.74 µM
TGI (UACC-257 melanoma): 16.1 µM and 27.8 µM
GI50 (HT29 colon): 1.03 µM
TGI (HT29 colon): > 39.8 µM and 28.5 µM
GI50 (SK-MEL-2 melanoma): 2.27 µM
TGI (SK-MEL-2 melanoma): 15 µM and 16.7 µM
TGI (A498 renal): 30.8 µM and 17.4 µM
GI50 (NCI-H522 lung): 0.389 µM
TGI (NCI-H522 lung): 31 µM and 18.2 µM
GI50 (SK-MEL-28 melanoma): 4.17 µM
TGI (SK-MEL-28 melanoma): 19.8 µM and 21.1 µM
GI50 (U251 CNS): 0.176 µM
TGI (U251 CNS): 28.6 µM and 12.3 µM
GI50 (HCT-15 colon): 0.42 µM
TGI (HCT-15 colon): 21.4 µM and 14.5 µM
GI50 (OVCAR-4 ovarian): 3.58 µM
TGI (OVCAR-4 ovarian): 31.4 µM and 29.8 µM
GI50 (MOLT-4 leukemia): 0.562 µM
TGI (MOLT-4 leukemia): 12.1 µM and > 60.8 µM
GI50 (K-562 leukemia): 0.372 µM
TGI (K-562 leukemia): > 100 µM
GI50 (SF-295 CNS): 0.153 µM
TGI (SF-295 CNS): 14.3 µM and 8.64 µM
GI50 (MALME-3M melanoma): 3.16 µM
TGI (MALME-3M melanoma): 11.1 µM and 18.6 µM
GI50 (HCT-116 colon): 0.321 µM
TGI (HCT-116 colon): 14.6 µM and 11.8 µM
GI50 (MDA-MB-231 breast): 3.57 µM
TGI (MDA-MB-231 breast): 19.3 µM and 19.2 µM
GI50 (HL-60(TB) leukemia): 0.601 µM
TGI (HL-60(TB) leukemia): 19.3 µM
GI50 (HS 578T breast): 0.301 µM
TGI (HS 578T breast): 23 µM and 20.1 µM
GI50 (SR leukemia): 0.361 µM
TGI (SR leukemia): > 64.9 µM

From PubChem BioAssay (NCI)
